According to the NIST ThermoML archive (doi:10.1016/j.jct.2016.09.030):

Assay: xn = mol fraction of the nth substance listed
Settings: 100 kPa, Liquid; for viscosity: Concentric cylinders viscometry; for mass density: Vibrating tube method

CCCCCCCC(=O)OCC [ethyl octanoate] + CC(C)CCO
Settings | mass density [kg/m3] | viscosity [mPa·s]
288.15 K, x1 = 0.1 | 822.09 | 3.559
288.15 K, x1 = 0.2001 | 830.4 | 2.806
288.15 K, x1 = 0.3 | 837.58 | 2.382
288.15 K, x1 = 0.4 | 843.9 | 2.117
288.15 K, x1 = 0.5001 | 849.54 | 1.951
288.15 K, x1 = 0.5999 | 854.63 | 1.856
288.15 K, x1 = 0.7003 | 859.29 | 1.759
288.15 K, x1 = 0.7998 | 863.5 | 1.716
288.15 K, x1 = 0.9001 | 867.37 | 1.687
288.15 K, x1 = 1 | 870.88 | 1.686
293.15 K, x1 = 0.1 | 818.23 | 3.06
293.15 K, x1 = 0.2001 | 826.44 | 2.439
293.15 K, x1 = 0.3 | 833.53 | 2.11
293.15 K, x1 = 0.4 | 839.78 | 1.891
293.15 K, x1 = 0.5001 | 845.38 | 1.752
293.15 K, x1 = 0.5999 | 850.42 | 1.673
293.15 K, x1 = 0.7003 | 855.04 | 1.593
293.15 K, x1 = 0.7998 | 859.23 | 1.557
293.15 K, x1 = 0.9001 | 863.07 | 1.534
293.15 K, x1 = 1 | 866.58 | 1.537
298.15 K, x1 = 0.1 | 814.36 | 2.684
298.15 K, x1 = 0.2001 | 822.46 | 2.177
298.15 K, x1 = 0.3 | 829.47 | 1.885
298.15 K, x1 = 0.4 | 835.66 | 1.702
298.15 K, x1 = 0.5001 | 841.2 | 1.586
298.15 K, x1 = 0.5999 | 846.2 | 1.518
298.15 K, x1 = 0.7003 | 850.78 | 1.451
298.15 K, x1 = 0.7998 | 854.94 | 1.422
298.15 K, x1 = 0.9001 | 858.77 | 1.404
298.15 K, x1 = 1 | 862.28 | 1.41
303.15 K, x1 = 0.1 | 810.47 | 2.351
303.15 K, x1 = 0.2001 | 818.46 | 1.936
303.15 K, x1 = 0.3 | 825.39 | 1.693
303.15 K, x1 = 0.4 | 831.52 | 1.537
303.15 K, x1 = 0.5001 | 837.01 | 1.44
303.15 K, x1 = 0.5999 | 841.96 | 1.385
303.15 K, x1 = 0.7003 | 846.52 | 1.327
303.15 K, x1 = 0.7998 | 850.66 | 1.305
303.15 K, x1 = 0.9001 | 854.47 | 1.292
303.15 K, x1 = 1 | 857.98 | 1.298
308.15 K, x1 = 0.1 | 806.56 | 2.077
308.15 K, x1 = 0.2001 | 814.45 | 1.73
308.15 K, x1 = 0.3 | 821.3 | 1.527
308.15 K, x1 = 0.4 | 827.36 | 1.398
308.15 K, x1 = 0.5001 | 832.81 | 1.315
308.15 K, x1 = 0.5999 | 837.72 | 1.267
308.15 K, x1 = 0.7003 | 842.25 | 1.221
308.15 K, x1 = 0.7998 | 846.36 | 1.202
308.15 K, x1 = 0.9001 | 850.16 | 1.195
308.15 K, x1 = 1 | 853.68 | 1.2
313.15 K, x1 = 0.1 | 802.62 | 1.845
313.15 K, x1 = 0.2001 | 810.42 | 1.559
313.15 K, x1 = 0.3 | 817.19 | 1.389
313.15 K, x1 = 0.4 | 823.19 | 1.281
313.15 K, x1 = 0.5001 | 828.58 | 1.211
313.15 K, x1 = 0.5999 | 833.46 | 1.17
313.15 K, x1 = 0.7003 | 837.96 | 1.132
313.15 K, x1 = 0.7998 | 842.05 | 1.116
313.15 K, x1 = 0.9001 | 845.85 | 1.112
313.15 K, x1 = 1 | 849.37 | 1.118
318.15 K, x1 = 0.1 | 798.65 | 1.639
318.15 K, x1 = 0.2001 | 806.35 | 1.401
318.15 K, x1 = 0.3 | 813.06 | 1.258
318.15 K, x1 = 0.4 | 819 | 1.167
318.15 K, x1 = 0.5001 | 824.35 | 1.108
318.15 K, x1 = 0.5999 | 829.19 | 1.074
318.15 K, x1 = 0.7003 | 833.67 | 1.042
318.15 K, x1 = 0.7998 | 837.74 | 1.03
318.15 K, x1 = 0.9001 | 841.53 | 1.028
318.15 K, x1 = 1 | 845.06 | 1.035
323.15 K, x1 = 0.1 | 794.65 | 1.48
323.15 K, x1 = 0.2001 | 802.26 | 1.281
323.15 K, x1 = 0.3 | 808.9 | 1.157
323.15 K, x1 = 0.4 | 814.79 | 1.078
323.15 K, x1 = 0.5001 | 820.1 | 1.028
323.15 K, x1 = 0.5999 | 824.91 | 0.9986
323.15 K, x1 = 0.7003 | 829.36 | 0.9718
323.15 K, x1 = 0.7998 | 833.43 | 0.9628
323.15 K, x1 = 0.9001 | 837.21 | 0.9653
323.15 K, x1 = 1 | 840.74 | 0.9708

CCCCCCCC(=O)OCC [ethyl octanoate] + CC(C)CO
Settings | mass density [kg/m3] | viscosity [mPa·s]
288.15 K, x1 = 0.1001 | 817.82 | 3.229
288.15 K, x1 = 0.1999 | 827.81 | 2.537
288.15 K, x1 = 0.3 | 836.01 | 2.169
288.15 K, x1 = 0.4 | 843.08 | 1.977
288.15 K, x1 = 0.5 | 849.18 | 1.851
288.15 K, x1 = 0.5999 | 854.5 | 1.766
288.15 K, x1 = 0.6999 | 859.21 | 1.703
288.15 K, x1 = 0.7999 | 863.44 | 1.677
288.15 K, x1 = 0.9 | 867.3 | 1.677
288.15 K, x1 = 1 | 870.88 | 1.686
293.15 K, x1 = 0.1001 | 813.83 | 2.762
293.15 K, x1 = 0.1999 | 823.71 | 2.22
293.15 K, x1 = 0.3 | 831.83 | 1.921
293.15 K, x1 = 0.4 | 838.85 | 1.768
293.15 K, x1 = 0.5 | 844.91 | 1.661
293.15 K, x1 = 0.5999 | 850.21 | 1.593
293.15 K, x1 = 0.6999 | 854.9 | 1.543
293.15 K, x1 = 0.7999 | 859.12 | 1.523
293.15 K, x1 = 0.9 | 862.98 | 1.524
293.15 K, x1 = 1 | 866.58 | 1.537
298.15 K, x1 = 0.1001 | 809.81 | 2.416
298.15 K, x1 = 0.1999 | 819.58 | 1.961
298.15 K, x1 = 0.3 | 827.63 | 1.716
298.15 K, x1 = 0.4 | 834.6 | 1.592
298.15 K, x1 = 0.5 | 840.63 | 1.503
298.15 K, x1 = 0.5999 | 845.9 | 1.447
298.15 K, x1 = 0.6999 | 850.58 | 1.407
298.15 K, x1 = 0.7999 | 854.81 | 1.393
298.15 K, x1 = 0.9 | 858.67 | 1.393
298.15 K, x1 = 1 | 862.28 | 1.41
303.15 K, x1 = 0.1001 | 805.76 | 2.111
303.15 K, x1 = 0.1999 | 815.43 | 1.74
303.15 K, x1 = 0.3 | 823.41 | 1.541
303.15 K, x1 = 0.4 | 830.32 | 1.44
303.15 K, x1 = 0.5 | 836.32 | 1.364
303.15 K, x1 = 0.5999 | 841.57 | 1.321
303.15 K, x1 = 0.6999 | 846.25 | 1.289
303.15 K, x1 = 0.7999 | 850.48 | 1.278
303.15 K, x1 = 0.9 | 854.35 | 1.283
303.15 K, x1 = 1 | 857.98 | 1.298
308.15 K, x1 = 0.1001 | 801.68 | 1.854
308.15 K, x1 = 0.1999 | 811.24 | 1.554
308.15 K, x1 = 0.3 | 819.16 | 1.389
308.15 K, x1 = 0.4 | 826.03 | 1.307
308.15 K, x1 = 0.5 | 832 | 1.246
308.15 K, x1 = 0.5999 | 837.24 | 1.21
308.15 K, x1 = 0.6999 | 841.91 | 1.186
308.15 K, x1 = 0.7999 | 846.14 | 1.179
308.15 K, x1 = 0.9 | 850.03 | 1.184
308.15 K, x1 = 1 | 853.68 | 1.2
313.15 K, x1 = 0.1001 | 797.55 | 1.642
313.15 K, x1 = 0.1999 | 807.02 | 1.399
313.15 K, x1 = 0.3 | 814.88 | 1.264
313.15 K, x1 = 0.4 | 821.71 | 1.196
313.15 K, x1 = 0.5 | 827.66 | 1.148
313.15 K, x1 = 0.5999 | 832.89 | 1.119
313.15 K, x1 = 0.6999 | 837.56 | 1.1
313.15 K, x1 = 0.7999 | 841.8 | 1.096
313.15 K, x1 = 0.9 | 845.7 | 1.103
313.15 K, x1 = 1 | 849.37 | 1.118
318.15 K, x1 = 0.1001 | 793.38 | 1.453
318.15 K, x1 = 0.1999 | 802.76 | 1.254
318.15 K, x1 = 0.3 | 810.56 | 1.144
318.15 K, x1 = 0.4 | 817.36 | 1.089
318.15 K, x1 = 0.5 | 823.29 | 1.05
318.15 K, x1 = 0.5999 | 828.51 | 1.027
318.15 K, x1 = 0.6999 | 833.19 | 1.013
318.15 K, x1 = 0.7999 | 837.45 | 1.012
318.15 K, x1 = 0.9 | 841.37 | 1.02
318.15 K, x1 = 1 | 845.06 | 1.035
323.15 K, x1 = 0.1001 | 789.15 | 1.308
323.15 K, x1 = 0.1999 | 798.46 | 1.144
323.15 K, x1 = 0.3 | 806.21 | 1.052
323.15 K, x1 = 0.4 | 812.99 | 1.006
323.15 K, x1 = 0.5 | 818.9 | 0.975
323.15 K, x1 = 0.5999 | 824.13 | 0.9556
323.15 K, x1 = 0.6999 | 828.81 | 0.9463
323.15 K, x1 = 0.7999 | 833.08 | 0.9462
323.15 K, x1 = 0.9 | 837.02 | 0.9546
323.15 K, x1 = 1 | 840.74 | 0.9708
